From PubChem BioAssay AID1918942 (Molecular Pharmacology Branch, DTP, NCI, 2023) come the findings set out here.

Values joined by “and” are separate entries in the source; they are usually repeats but may differ in a detail not shown here. Equal values may be shown once.

The test system of this experiment is 743489-274-T-PDC complex spheroid viability. Put plainly: Anticancer human tumor 743489-274-T-PDC patient-derived renal cell carcinoma cell line growth inhibition. The conditions noted are these: for viability, T/C: stronger effect = lower value. The source says: Multicellular complex tumor spheroid response to LSD1 Inhibitor Iadademstat in combination with a variety of drugs and investigational agents in selected tumor cell lines
The current study was undertaken to assess response to LSD1 inhibitors in combination with standard-of-care drugs and investigational agents in solid tumor complex spheroid models as well as in the K-562 leukemia. Complex spheroids include a stromal component modeled by human endothelial cells (HUVEC) and fibroblasts modeled by human mesenchymal stem cells (MSCs). The concentration ranges selected for each drug and investigational agent were based upon clinically achievable concentrations if the clinical Cmax of the agent was known.
Compounds. The drugs and investigational agents used in this study are listed on Table 1. All of the agents used, including staurosporine (NSC755774) and gemcitabine (NSC613327), were obtained from the Developmental Therapeutics Program, NCI. FDA-approved anticancer drugs are available from the NCI at http://dtp.nci.nih.gov/branches/dscb/oncology_drugset_explanation.html. Drugs and investigational agents were >95% pure by proton nuclear magnetic resonance (NMR) and liquid chromatography/mass spectrometry (LC/MS). Stock solutions were prepared at 400x in DMSO, stored at -70 degrees C, and diluted in fresh medium prior to their use. The final concentration of DMSO in cell culture wells never exceeded 0.25% (v/v). The FDA-approved anticancer drug set is available from the Developmental Therapeutics Program at https://dtp.cancer.gov/organization/dscb/obtaining/available_plates.htm. All drugs and investigational agents were tested over a range starting from a high concentration at or near the clinical Cmax and decreasing in half-log increments. If the clinical Cmax for an agent had not been determined, the highest concentration tested was 10 microM.
Cell Lines. The patient-derived cancer cell (PDC) lines: 292921-168-R-J2-PDC, K24384-001-R-PDC, and 521955-158-R2-J5-PDC pancreatic carcinomas, 556581-035-R-J1 ovarian carcinoma, 324938-238-R-J1-PDC, 855422-203-R-J1-PDC and 883617-216-R-J1-PDC urothelial bladder carcinomas, 743489-274-T-PDC renal cell carcinoma, 138582-R-J1 Merkel cell tumor, K60290-347-R-J1 and K57222-313-R-J1-PDC glioblastomas, 653999-131-R-J2-PDC, LG0703-F948-PDC, and 349418-098-R-PDC non-small cell lung carcinomas, 885512-296-R-J2-PDC, 171881-019-R-J1-PDC breast carcinomas and 186277-243-T-J2-PDC and 233499-124-R-J2-PDC colon carcinomas were obtained from the NCI Patient-Derived Models Repository (PDMR, https://pdmr.cancer.gov). The established cell lines NCI/ADR-RES (RRID:CVCL_14520 and OVCAR-5 (RRID:CVCL_1628) ovarian carcinomas, 786-O (RRID:CVCL_1051) and A498 (RRID:CVCL_A498) renal cell carcinoma, NCI-H211 (ATCC, cat. CRL-5824; RRID:CVCL_1529), NCI-H196 (ATCC, cat. CRL-5823, RRID:CVCL_1509), SW 1271 (ATCC, cat. CRL-2177, RRID:CVCL_1716) and NCI-H1876 (ATCC, cat. CRL-5902, RRID:CVCL_1503) small cell lung carcinomas, MDA-MB-231 (RRID:CVCL_0062) and MDA-MB-468 (RRID:CVCL_0419)breast carcinomas (10-12). Pooled donor human umbilical vein endothelial cells (HUVEC, Lonza, cat. CC-2519) and human mesenchymal stem cells (hMSC, Lonza, cat. PT-2501) were purchased from Lonza (Walkersville, MD).
Cell Culture. All cells were maintained in an incubator at 37 degrees C and 5% CO2 with 95% humidity. The PDC lines were cultured according to standard operating procedures established by the NCI PDMR (https://pdmr.cancer.gov). Briefly all PDCs were thawed and cultured in Matrigel-coated flasks prepared with a working solution of 1X Ham's F-12 nutrient mix, without supplementation (Invitrogen, Waltham, MA, cat. 11765054), 100 U/mL penicillin-streptomycin (Invitrogen, cat. 15140122), and 2.5% Matrigel (Corning Inc., Corning, NY, cat. 354248) for the first three passages. […]
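Note: spheroids exposed to compounds for 7 days before readout.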
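Throughout, for viability, T/C: 100% = DMSO vehicle control wells.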

For `CC(C)c1c(-c2ccccc2)nc2c(C#N)c[nH]n2c1=O`, the viability, T/C was 106% and 94.8% (compound 0.0316 µM); 100% and 102% (compound 0.1 µM); 86.4% and 102% (compound 0.316 µM); 96% and 107% (compound 1 µM); 93.2% and 93.5% (compound 3.16 µM). For the same molecule, the IC50 (curve of compound) was above 10 µM.

With `CC1COCCN1c1cc(C2(S(C)(=N)=O)CC2)nc(-c2ccnc3[nH]ccc23)n1` (centres undefined), the viability, T/C (compound 0.0316 µM) was 93.4% and 107%; the viability, T/C (compound 0.1 µM) is 112% and 104%; the viability, T/C (compound 0.316 µM) was 99.9% and 87%; the viability, T/C (compound 1 µM) was 93.9% and 91.4%; the viability, T/C (compound 3.16 µM) is 100% and 90.3%; the viability, T/C (compound 10 µM) is 81.3% and 63.8%. For the same molecule, the IC50 (curve of compound) is above 10 µM.

Regarding `COc1ccc([C@@H](O)c2cc(-c3ncnc4cc(N5CCOCC5)ccc34)c(F)cc2Cl)nn1`, the viability, T/C was 108% and 93.4% (compound 0.0316 µM); 100% and 95.8% (compound 0.1 µM); 90.5% and 72.5% (compound 0.316 µM); 59.4% and 43.6% (compound 1 µM); 38.7% and 21.3% (compound 3.16 µM); 20.8% and 19.4% (compound 10 µM). The IC50 (curve of compound) is 1.73 µM and 0.753 µM.

Consider `NC1CC1c1ccc(-c2cccc(O)c2)cc1` (centres undefined), for which the viability, T/C (compound 0.316 µM) was 103% [middle of 25 runs]. The IC50 (compound alone, run of 12/07/2021) is above 10 µM.

As for `NC1CCC(NC2CC2c2ccccc2)CC1` (centres undefined), the viability, T/C (compound 0.316 µM) is 105% and 107%. Also, where the note is “compound alone, run of 11/29/2021”, the IC50 was above 10 µM.
